# Test results reported in patent US7902187B2, “6-substituted 2-(benzimidazolyl)purine and purinone derivatives for immunosuppression” (Wyeth LLC, priority 2006, dated 2011).
# Target: T1, Jak3 (Homo sapiens, UniProt P52333)
# T1 construct: A fragment encoding the catalytic domain of Jak3 (508aa to 1124aa) was ligated with GST at 5′ end; made in house; host or cells: Sf9 insect cells (baculovirus, pFastBac 1)
# T1 sequence (P52333 508-1124): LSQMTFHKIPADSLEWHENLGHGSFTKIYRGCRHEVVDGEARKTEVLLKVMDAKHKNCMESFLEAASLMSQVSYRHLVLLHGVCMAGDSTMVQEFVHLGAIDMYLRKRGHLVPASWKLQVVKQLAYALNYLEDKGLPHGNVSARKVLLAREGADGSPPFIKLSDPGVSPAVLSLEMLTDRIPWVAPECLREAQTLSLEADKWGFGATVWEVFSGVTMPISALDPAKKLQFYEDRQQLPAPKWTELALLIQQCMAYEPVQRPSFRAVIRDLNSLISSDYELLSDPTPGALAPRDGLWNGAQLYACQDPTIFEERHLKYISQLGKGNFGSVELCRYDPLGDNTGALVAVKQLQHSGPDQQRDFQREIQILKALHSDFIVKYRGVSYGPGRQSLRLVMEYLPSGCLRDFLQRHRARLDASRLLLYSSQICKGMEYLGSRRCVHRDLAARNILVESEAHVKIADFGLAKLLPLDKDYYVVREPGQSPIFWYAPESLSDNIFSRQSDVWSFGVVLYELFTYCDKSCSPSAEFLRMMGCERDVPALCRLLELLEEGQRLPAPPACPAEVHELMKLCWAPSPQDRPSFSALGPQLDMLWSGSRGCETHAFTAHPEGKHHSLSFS
# Assay: Jak3 Kinase Assay (HTRF)
# Type: biochemical
# Conditions: GST-Jak3 catalytic domain, 1 μM ATP, 60-min incubation; read-out: Jak3 Kinase, IC50 representation
# Procedure: Human Jak3 cDNA was amplified by PCR. A fragment encoding the catalytic domain of Jak3 (508aa to 1124aa) was ligated with GST at 5′ end. This fused GST-Jak3 DNA fragment was cloned into the EcoRI site of the donor plasmid pFastBac 1 (Life Technologies #10359-016). The transformation, transposition, and transfection of insect cells (Sf9) were performed according to the manufacture's instructions. The cell lysate containing recombinant GST-Jak3 was used in the kinase assay. Anti-GST antibody (10 μg/ml, Sigma #G1417) was coated onto a 384-well plate at 4° C. overnight. Cell lysate containing GST-Jak3 (1:100 dilution) was added to the anti-GST coated plates, and GST-Jak3 was captured by immobilized anti-GST antibody. Testing compounds and substrate mix (50 mM HEPES, pH 7, 0.5 mM Na3VO4, 25 mM MgCl2, 1 mM DTT, 0.005% BSA, 1 μM ATP, and 4.5 μg/ml biotinyl poly-Glu,Ala,Tyr) were added to the plate to initiate the reaction. After a 60-min incubation, the reaction was stopped by 4 mM EDTA, and phosphorylation of biotinyl poly-Glu,Ala,Tyr was detected using 17 μg/ml Cy5-streptavidin (Amersham, #PA92005) and 2.7 μg/ml Europium-conjugated anti-phosphotyrosine antibody (PerkinElmer #AD0069) using homogeneous time-resolved fluorescence (HTRF) technology.
row,IC50 [nM],Compound
1,< 100,N#Cc1ccc2ncn(-c3nc(N4CC(O)C4)c4[nH]c(=O)n(C5CCOCC5)c4n3)c2c1
2,< 100,Cn1c(=O)n(C2CCOCC2)c2nc(-n3cnc4ccc(Cl)cc43)nc(N3CC(F)(F)C3)c21
3,< 100,N#Cc1ccc2ncn(-c3nc(N4CCNCC4)c4[nH]c(=O)n(C5CCOCC5)c4n3)c2c1
4,< 100,N#Cc1ccc2ncn(-c3nc(NCC4CC4)c4[nH]c(=O)n(C5CCOCC5)c4n3)c2c1
5,< 100,N#Cc1ccc(-c2nc(-n3cnc4ccc(F)cc43)nc3c2[nH]c(=O)n3C2CCOCC2)cc1
6,< 100,O=c1[nH]c2c(N3CC(F)(F)C3)nc(-n3cnc4ccc(F)cc43)nc2n1C1CCOCC1
7,< 100,N#CCNC(=O)c1nc(-n2cnc3ccc(F)cc32)nc2c1[nH]c(=O)n2C1CCOc2ccccc21 (centres unmarked)
8,< 100,CC(c1cccnc1)n1c(=O)[nH]c2c(N3CC(F)(F)C3)nc(-n3cnc4ccc(C#N)cc43)nc21 (centres unmarked)
9,< 100,O=c1[nH]c2c(Oc3cccnc3)nc(-n3cnc4ccc(F)cc43)nc2n1C1CCOCC1
10,100 to 1000,CC(C)CNc1nc(-n2cnc3ccc(F)cc32)nc2c1[nH]c(=O)n2[C@@H]1CCOc2c(F)cccc21
11,100 to 1000,N#Cc1ccc(-c2nc(-n3cnc4ccc(F)cc43)nc3c2[nH]c(=O)n3[C@@H]2CCOc3c(F)cccc32)cc1

# Further lines, the compound ahead of its results:
row,Compound,IC50 [nM]
1,O=c1[nH]c2c(-c3ccccc3)nc(-n3cnc4ccccc43)nc2n1C1CCOCC1,100 to 1000
2,O=c1[nH]c2c(OC3CCOC3)nc(-n3cnc4ccc(F)cc43)nc2n1C1CCOCC1 (centres unmarked),100 to 1000
3,CN(C)C(=O)CNc1nc(-n2cnc3ccc(F)cc32)nc2c1[nH]c(=O)n2C1CCOCC1,< 100
4,O=c1[nH]c2c(NCC3CNC3)nc(-n3cnc4ccc(F)cc43)nc2n1C1CCOCC1,< 100
5,Cn1c(=O)n([C@H]2CC[C@H](O)CC2)c2nc(-n3cnc4ccc(F)cc43)nc(N3CC[C@H](F)C3)c21,< 100
6,O=C(O)c1nc(-n2cnc3ccc(F)cc32)nc2c1[nH]c(=O)n2C1CCOc2ccccc21 (centres unmarked),< 100
7,O=c1[nH]c2c(N3CCCCC3)nc(-n3cnc4ccc(F)cc43)nc2n1C1CCOCC1,< 100
8,Cc1nc2c(-c3ccncc3)nc(-n3cnc4ccc(Cl)cc43)nc2n1C1CCOCC1,< 100
9,O=c1[nH]c2c(N3CC(O)C3)nc(-n3cnc4ccc(F)cc43)nc2n1C1CCOCC1,< 100
10,CC(C)(C)OC(=O)N1CC(Nc2nc(-n3cnc4ccc(Cl)cc43)nc3c2[nH]c(=O)n3C2CCOCC2)C1,< 100
11,Cn1c(=O)n([C@H]2CC[C@H](O)CC2)c2nc(-n3cnc4ccc(Cl)cc43)nc(N3CCC(F)(F)CC3)c21,< 100
12,O=C(c1nc(-n2cnc3ccc(F)cc32)nc2c1[nH]c(=O)n2C1CCOCC1)N1CCCCC1,100 to 1000
13,Cn1c(=O)n([C@H]2CC[C@H](O)CC2)c2nc(-n3cnc4ccc(F)cc43)nc(N3CC[C@@H](F)C3)c21,< 100
14,O=c1[nH]c2c(NCc3ccccc3)nc(-n3cnc4ccc(F)cc43)nc2n1C1CCOCC1,100 to 1000
15,CC(C)(C)OC(=O)N1CC(CNc2nc(-n3cnc4ccc(F)cc43)nc3c2[nH]c(=O)n3C2CCOCC2)C1,< 100
16,O=c1[nH]c2c(Oc3ccncc3)nc(-n3cnc4ccc(F)cc43)nc2n1C1CCOCC1,< 100
17,CN1CCCN(c2nc(-n3cnc4ccc(F)cc43)nc3c2[nH]c(=O)n3C2CCOCC2)CC1,< 100
18,O=c1[nH]c2c(-c3cn[nH]c3)nc(-n3cnc4ccc(F)cc43)nc2n1C1CCOCC1,< 100
19,N#CCNC(=O)c1nc(-n2cnc3ccc(F)cc32)nc2c1[nH]c(=O)n2C1CCOCC1,< 100
20,Cn1c(=O)n([C@H]2CC[C@H](O)CC2)c2nc(-n3cnc4ccc(F)cc43)nc(N3CCC(F)CC3)c21,< 100
21,O=c1[nH]c2c(-c3ccccc3Cl)nc(-n3cnc4ccc(F)cc43)nc2n1C1CCOCC1,> 1000

# Test system: not given
# Assay: not given
# Conditions: NOD mouse; cited from earlier work
row,Compound,spontaneous autoimmune diabetes development
1,COc1cc2ncnc(Nc3ccc(O)cc3)c2cc1OC [JANEX-1],prevent spontaneous autoimmune diabetes development

# Test system: not given
# Assay: not given
# Conditions: in vivo; cited from earlier work
row,Compound,severity of GVHD
1,COc1cc2ncnc(Nc3ccc(O)cc3)c2cc1OC [JANEX-1],attenuate the severity of GVHD

# Target: T2, Jak3 (Homo sapiens, UniProt P52333)
# T2 construct: host or cells: leukemia cells (not specified)
# T2 sequence (P52333 1-1124): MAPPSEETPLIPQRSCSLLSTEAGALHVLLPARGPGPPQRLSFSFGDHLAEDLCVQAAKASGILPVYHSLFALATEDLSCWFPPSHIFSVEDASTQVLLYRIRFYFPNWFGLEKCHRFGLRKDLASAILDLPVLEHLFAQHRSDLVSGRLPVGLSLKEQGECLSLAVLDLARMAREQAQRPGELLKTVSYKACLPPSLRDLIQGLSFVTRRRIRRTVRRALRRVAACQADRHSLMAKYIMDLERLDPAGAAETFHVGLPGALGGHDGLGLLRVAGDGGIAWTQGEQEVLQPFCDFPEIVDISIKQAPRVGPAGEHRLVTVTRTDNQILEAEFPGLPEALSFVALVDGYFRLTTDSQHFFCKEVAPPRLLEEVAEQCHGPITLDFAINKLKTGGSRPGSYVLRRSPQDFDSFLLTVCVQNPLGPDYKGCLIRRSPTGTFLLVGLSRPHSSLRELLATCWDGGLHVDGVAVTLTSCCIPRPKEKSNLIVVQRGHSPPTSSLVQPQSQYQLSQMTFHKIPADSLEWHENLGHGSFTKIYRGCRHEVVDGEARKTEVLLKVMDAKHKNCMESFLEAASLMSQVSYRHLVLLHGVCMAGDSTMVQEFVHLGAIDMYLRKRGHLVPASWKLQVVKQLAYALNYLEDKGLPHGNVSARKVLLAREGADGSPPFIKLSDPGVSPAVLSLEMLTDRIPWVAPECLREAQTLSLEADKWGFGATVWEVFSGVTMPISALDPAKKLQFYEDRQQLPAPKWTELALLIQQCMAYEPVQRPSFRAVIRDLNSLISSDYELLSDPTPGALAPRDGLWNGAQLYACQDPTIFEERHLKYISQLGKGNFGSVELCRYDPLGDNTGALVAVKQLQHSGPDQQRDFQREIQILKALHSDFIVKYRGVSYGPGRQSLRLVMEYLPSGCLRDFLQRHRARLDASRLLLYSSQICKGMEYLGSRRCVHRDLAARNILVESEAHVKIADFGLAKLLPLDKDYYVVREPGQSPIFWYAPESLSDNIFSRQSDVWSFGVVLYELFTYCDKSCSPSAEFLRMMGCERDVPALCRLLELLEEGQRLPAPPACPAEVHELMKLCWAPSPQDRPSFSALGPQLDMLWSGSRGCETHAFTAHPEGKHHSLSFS
# Assay: not given
# Conditions: leukemia cells; cited from earlier work
row,Compound,selectivity of Jak3 inhibition
1,COc1cc2ncnc(Nc3ccc(O)c(Br)c3)c2cc1OC [WHI-P154],selective inhibitors of Jak3
2,COc1cc2ncnc(Nc3ccc(O)cc3)c2cc1OC [JANEX-1],selective inhibitors of Jak3

# Test system: not given
# Assay: not given
# Conditions: murine model of heart transplantation; cited from earlier work
row,Compound,animal survival
1,"C[C@@H]1CCN(C(=O)CC#N)C[C@@H]1N(C)c1ncnc2[nH]ccc12 [CP-690,550]",prolong animal survival

# Test system: not given
# Assay: not given
# Conditions: primate model of kidney transplantation; cited from earlier work
row,Compound,animal survival
1,"C[C@@H]1CCN(C(=O)CC#N)C[C@@H]1N(C)c1ncnc2[nH]ccc12 [CP-690,550]",prolong animal survival
